# Data: US20070020716A1, “Coronary Endothelial Dysfunction” (priority 2005, published 2007)
# Columns and labels:
# [1] = test system: coronary artery diameter (left anterior descending coronary artery); test: Epicardial endothelial function: change in coronary artery diameter after intracoronary acetylcholine; format: in vivo, human; conditions: maximal dose of acetylcholine, unadjusted
# Protocol: (§1) After diagnostic angiography and exclusion of significant obstructive coronary artery disease, endothelium-dependent coronary vasoactivity was assessed as described elsewhere (Suwaidi et al., Circulation, 101:948-954 (2000) and Hasdai et al., Circulation, 96:3390-3395 (1997)). In brief, a Doppler guidewire (Flowire, Volcano Inc.) within a coronary-infusion catheter (Ultrafuse, SciMed Life System) was positioned into the midportion of the left anterior descending coronary artery. Intra-coronary acetylcholine at increasing concentrations of 10^−6, 10^−5, and 10^−4 M was infused to obtain effective coronary concentrations of 10^−8, 10^−7, and 10^−6 M, respectively. Each dose of acetylcholine was infused for three minutes through the infusion catheter into the left anterior descending coronary artery to assess endothelium dependent vasoreactivity. Hemodynamic data, Doppler measurements, and a coronary angiogram were obtained after each infusion. Coronary artery diameter was measured by an independent investigator in the segment 5 mm distal to the tip of the Doppler wire using a computer-based image analysis system. Average peak velocity (APV) was derived from the Doppler flow velocity spectra, and coronary blood flow (CBF) was determined as π(coronary artery diameter/2)^2×(APV/2). […] Endothelium-independent microvascular function was determined by the coronary flow reserve (CFR), which is the ratio of the APV at maximal hyperemia to the APV at baseline. […] Lp-PLA2 levels were measured in plasma aliquots, which were obtained at the time of coronary angiography and stored at −70° C., using an enzyme-linked immunoassay (PLAC™ test, diaDexus, Inc; Caslake et al., Atherosclerosis, 150:413-419 (2000)). […]
# Epicardial endothelial function as determined by percentage change in coronary artery diameter in response to the maximal dose of acetylcholine was measured (FIG. 2). […]
# [2] = test system: coronary blood flow (left anterior descending coronary artery); test: Microvascular endothelial function: change in coronary blood flow after intracoronary acetylcholine; format: in vivo, human; conditions: maximal dose of intracoronary acetylcholine, unadjusted
# Protocol: as §1
# Microvascular endothelial function as determined by percentage change in coronary blood flow in response to the maximal dose of intracoronary acetylcholine was measured (FIG. 1). […]
# [3] = patients in Lp-PLA2 Tertile 1 (110-181.4 ng/mL, N=57)
# [4] = patients in Lp-PLA2 Tertile 2 (181.48-239.6 ng/mL, N=58)
# [5] = patients in Lp-PLA2 Tertile 3 (240-443 ng/mL, N=57)
structure (smiles),measurement,setting,value
CC(=O)OCC[N+](C)(C)C [acetylcholine],percentage change in coronary artery diameter,[1]; [3],−9.5±15.2%
same,percentage change in coronary artery diameter,[1]; [4],−14.1±14.7%
same,percentage change in coronary artery diameter,[1]; [5],−23.3±25.1%
same,percentage change in coronary blood flow,[2]; [3],78.4±15.2%
same,percentage change in coronary blood flow,[2]; [4],63.8±73.2%
same,percentage change in coronary blood flow,[2]; [5],32.0±71.7%
